Measurements reported in ChEMBL document CHEMBL1137237, “Identification of isothiazole-4-carboxamidines derivatives as a novel class of allosteric MEK1 inhibitors” (Bioorg Med Chem Lett, 2006).

Tests used:
[1] = AUC following oral dose; assay type: ADME, organism-based; conditions: rat, plasma
[2] = AUC following intravenous dose; assay type: ADME, organism-based; conditions: rat, plasma
[3] = molecular target: Serine/threonine-protein kinase Chk2 (Homo sapiens, UniProt O96017); assay: Inhibition of CHK2
Chain of Serine/threonine-protein kinase Chk2 (O96017 whole entry): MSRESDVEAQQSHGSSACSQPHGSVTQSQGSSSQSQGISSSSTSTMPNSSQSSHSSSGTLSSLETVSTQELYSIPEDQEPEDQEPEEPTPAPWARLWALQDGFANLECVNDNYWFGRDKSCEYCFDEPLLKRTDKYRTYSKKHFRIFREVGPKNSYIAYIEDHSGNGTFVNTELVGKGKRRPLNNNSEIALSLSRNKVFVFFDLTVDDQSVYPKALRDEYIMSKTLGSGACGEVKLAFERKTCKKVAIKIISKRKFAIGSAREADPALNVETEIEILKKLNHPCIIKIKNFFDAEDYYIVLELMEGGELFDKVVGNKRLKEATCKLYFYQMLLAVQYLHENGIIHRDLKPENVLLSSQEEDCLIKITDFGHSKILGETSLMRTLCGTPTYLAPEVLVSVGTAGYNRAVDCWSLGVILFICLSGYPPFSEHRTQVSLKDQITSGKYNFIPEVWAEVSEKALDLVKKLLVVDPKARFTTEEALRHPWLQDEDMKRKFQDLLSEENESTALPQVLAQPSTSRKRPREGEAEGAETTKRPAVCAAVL

[4] = molecular target: T1, Tyrosine-protein kinase receptor UFO (Homo sapiens, UniProt P30530); assay: Inhibition of Axl
T1 sequence (P30530 whole entry): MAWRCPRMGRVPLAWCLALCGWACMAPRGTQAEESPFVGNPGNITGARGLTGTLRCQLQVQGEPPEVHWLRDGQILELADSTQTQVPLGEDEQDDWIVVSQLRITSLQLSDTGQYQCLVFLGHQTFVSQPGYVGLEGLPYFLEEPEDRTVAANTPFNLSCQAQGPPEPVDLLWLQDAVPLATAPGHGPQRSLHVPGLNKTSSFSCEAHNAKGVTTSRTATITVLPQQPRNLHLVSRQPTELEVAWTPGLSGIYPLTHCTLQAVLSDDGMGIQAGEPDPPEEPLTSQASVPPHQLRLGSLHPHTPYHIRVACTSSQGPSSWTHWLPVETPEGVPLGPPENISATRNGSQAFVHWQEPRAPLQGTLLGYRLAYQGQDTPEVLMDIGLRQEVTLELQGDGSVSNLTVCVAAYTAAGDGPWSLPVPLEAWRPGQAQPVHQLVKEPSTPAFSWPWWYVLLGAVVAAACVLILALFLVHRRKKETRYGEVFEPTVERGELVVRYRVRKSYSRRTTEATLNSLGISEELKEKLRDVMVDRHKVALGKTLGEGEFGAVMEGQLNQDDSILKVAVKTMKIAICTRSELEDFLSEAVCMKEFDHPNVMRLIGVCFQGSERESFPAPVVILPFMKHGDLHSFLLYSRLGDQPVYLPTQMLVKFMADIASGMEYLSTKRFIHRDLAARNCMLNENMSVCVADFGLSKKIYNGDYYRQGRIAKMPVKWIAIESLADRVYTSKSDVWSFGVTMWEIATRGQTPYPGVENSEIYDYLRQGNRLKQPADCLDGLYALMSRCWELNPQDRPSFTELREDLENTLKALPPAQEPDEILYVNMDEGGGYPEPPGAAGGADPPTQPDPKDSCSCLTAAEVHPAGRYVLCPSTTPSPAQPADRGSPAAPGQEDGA

[5] = molecular target: T2, Dual specificity mitogen-activated protein kinase kinase 1 (Homo sapiens, UniProt Q02750); assay: Inhibition of MEK-1 activity
T2 sequence (Q02750 whole entry): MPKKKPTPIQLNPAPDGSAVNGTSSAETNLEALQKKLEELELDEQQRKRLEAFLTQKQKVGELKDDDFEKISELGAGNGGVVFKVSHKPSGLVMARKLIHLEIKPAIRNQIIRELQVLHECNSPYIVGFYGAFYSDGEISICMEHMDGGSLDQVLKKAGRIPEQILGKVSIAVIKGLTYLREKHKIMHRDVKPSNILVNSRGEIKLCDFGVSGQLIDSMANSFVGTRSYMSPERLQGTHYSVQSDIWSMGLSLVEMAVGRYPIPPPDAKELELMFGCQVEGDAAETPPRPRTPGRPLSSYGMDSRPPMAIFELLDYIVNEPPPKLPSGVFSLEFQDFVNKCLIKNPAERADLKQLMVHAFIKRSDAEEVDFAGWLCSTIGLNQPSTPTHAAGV

[6] = molecular target: T2, Dual specificity mitogen-activated protein kinase kinase 1; assay: Inhibition of MEK-1
[7] = molecular target: T3, Aurora kinase A (Homo sapiens, UniProt O14965); assay: Inhibition of Aurora
T3 sequence (O14965 whole entry): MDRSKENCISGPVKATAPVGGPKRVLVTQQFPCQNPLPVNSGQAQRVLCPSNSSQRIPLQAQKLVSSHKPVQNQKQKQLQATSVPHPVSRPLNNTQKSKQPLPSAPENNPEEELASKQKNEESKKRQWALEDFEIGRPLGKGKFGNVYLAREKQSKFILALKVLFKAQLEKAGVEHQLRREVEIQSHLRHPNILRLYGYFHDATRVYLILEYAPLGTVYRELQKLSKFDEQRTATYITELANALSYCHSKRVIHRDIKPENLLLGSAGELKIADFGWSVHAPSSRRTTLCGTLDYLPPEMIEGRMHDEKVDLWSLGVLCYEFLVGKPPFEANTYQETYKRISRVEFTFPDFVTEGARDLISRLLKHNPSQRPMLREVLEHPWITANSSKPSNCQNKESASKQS

[8] = molecular target: T4, Receptor-type tyrosine-protein kinase FLT3 (Homo sapiens, UniProt P36888); assay: Inhibition of Flt-3
T4 sequence (P36888 whole entry): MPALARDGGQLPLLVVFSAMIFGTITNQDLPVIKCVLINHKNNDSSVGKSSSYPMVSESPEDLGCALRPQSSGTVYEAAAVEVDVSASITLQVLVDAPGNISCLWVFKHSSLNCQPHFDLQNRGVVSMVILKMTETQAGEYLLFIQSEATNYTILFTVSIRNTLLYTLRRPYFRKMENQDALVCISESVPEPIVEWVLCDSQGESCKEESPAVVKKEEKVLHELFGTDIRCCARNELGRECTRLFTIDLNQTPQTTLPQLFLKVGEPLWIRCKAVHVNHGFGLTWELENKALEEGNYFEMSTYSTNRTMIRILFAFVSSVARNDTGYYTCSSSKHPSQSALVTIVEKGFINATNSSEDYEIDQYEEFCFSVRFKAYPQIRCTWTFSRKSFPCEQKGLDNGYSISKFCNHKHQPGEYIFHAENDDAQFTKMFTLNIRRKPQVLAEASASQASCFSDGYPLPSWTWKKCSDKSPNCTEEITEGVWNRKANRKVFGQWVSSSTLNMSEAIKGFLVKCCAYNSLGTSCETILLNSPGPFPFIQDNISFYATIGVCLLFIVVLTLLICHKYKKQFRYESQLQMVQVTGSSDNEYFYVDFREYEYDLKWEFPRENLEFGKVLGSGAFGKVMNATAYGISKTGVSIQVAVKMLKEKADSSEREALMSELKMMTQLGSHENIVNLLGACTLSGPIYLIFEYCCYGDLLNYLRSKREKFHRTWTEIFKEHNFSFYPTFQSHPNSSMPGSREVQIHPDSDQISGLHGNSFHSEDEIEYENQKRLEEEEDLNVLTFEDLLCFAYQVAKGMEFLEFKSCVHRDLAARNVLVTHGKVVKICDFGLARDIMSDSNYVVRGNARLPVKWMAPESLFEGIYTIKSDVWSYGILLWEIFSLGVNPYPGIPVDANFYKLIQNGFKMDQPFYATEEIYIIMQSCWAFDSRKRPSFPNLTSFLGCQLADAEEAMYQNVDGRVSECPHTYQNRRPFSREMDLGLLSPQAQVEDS

[9] = molecular target: Ribosomal protein S6 kinase (P70S6K) (Homo sapiens, UniProt P23443+Q9UBS0); assay: Inhibition of p70 S6 kinase; assay type: protein-complex assay
Chain of Ribosomal protein S6 kinase (P70S6K) (Q9UBS0 whole entry): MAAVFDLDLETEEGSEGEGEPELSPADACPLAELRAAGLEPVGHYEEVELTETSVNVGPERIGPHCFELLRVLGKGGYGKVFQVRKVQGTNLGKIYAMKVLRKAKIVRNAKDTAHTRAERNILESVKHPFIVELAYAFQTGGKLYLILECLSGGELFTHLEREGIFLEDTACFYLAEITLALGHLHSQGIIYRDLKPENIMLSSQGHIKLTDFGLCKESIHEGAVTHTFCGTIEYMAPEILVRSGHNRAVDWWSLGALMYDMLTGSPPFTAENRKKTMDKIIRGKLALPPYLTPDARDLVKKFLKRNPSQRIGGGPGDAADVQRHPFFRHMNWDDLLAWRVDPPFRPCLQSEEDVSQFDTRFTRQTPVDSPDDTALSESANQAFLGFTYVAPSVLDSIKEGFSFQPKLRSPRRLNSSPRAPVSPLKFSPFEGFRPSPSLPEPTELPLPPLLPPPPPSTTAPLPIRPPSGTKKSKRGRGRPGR
Chain of Ribosomal protein S6 kinase (P70S6K) (P23443 whole entry): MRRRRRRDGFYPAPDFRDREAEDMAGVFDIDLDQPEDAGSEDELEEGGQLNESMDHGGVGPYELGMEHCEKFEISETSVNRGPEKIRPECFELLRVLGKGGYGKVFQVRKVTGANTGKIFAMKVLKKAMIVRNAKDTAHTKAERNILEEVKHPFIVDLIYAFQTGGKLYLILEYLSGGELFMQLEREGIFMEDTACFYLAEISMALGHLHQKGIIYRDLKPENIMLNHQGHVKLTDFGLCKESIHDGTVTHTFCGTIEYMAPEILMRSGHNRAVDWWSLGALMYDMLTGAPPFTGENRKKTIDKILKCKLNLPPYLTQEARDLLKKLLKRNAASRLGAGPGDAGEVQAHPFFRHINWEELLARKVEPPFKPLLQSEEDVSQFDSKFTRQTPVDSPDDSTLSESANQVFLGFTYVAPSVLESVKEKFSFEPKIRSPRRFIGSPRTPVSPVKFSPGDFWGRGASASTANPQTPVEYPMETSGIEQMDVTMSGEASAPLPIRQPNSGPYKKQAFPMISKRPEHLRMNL

[10] = molecular target: T2, Dual specificity mitogen-activated protein kinase kinase 1; assay: Inhibitory activity against MEK-1; assay type: functional

Compound	AUC [1] [ng·h/mL]	other results
N=C(NCCN1CCOCC1)c1c(O)nsc1Nc1ccc(Oc2cc(Cl)ccc2Cl)cc1	617	
NC(=NCCCN1CCOCC1)c1c(Nc2ccc(Oc3cc(Cl)ccc3Cl)cc2)s[nH]c1=O	6860	
N/C(=N\N1CCOCC1)c1c(O)nsc1Nc1ccc(Oc2cc(Cl)ccc2Cl)cc1	2880	
CN1CCN(CC/N=C(\N)c2c(O)nsc2Nc2ccc(Oc3cc(Cl)ccc3Cl)cc2)CC1	262	
CC(CO)N=C(N)c1c(Nc2ccc(Oc3cc(Cl)ccc3Cl)cc2)s[nH]c1=O (stereo not given)	47400	
CC(C)C(CO)N=C(N)c1c(Nc2ccc(Oc3cc(Cl)ccc3Cl)cc2)s[nH]c1=O (stereo not given)	22400	
NC(=NC(CO)CO)c1c(Nc2ccc(Oc3cc(Cl)ccc3Cl)cc2)s[nH]c1=O	5100	
N=C(NCC1CCCO1)c1c(O)nsc1Nc1ccc(Oc2cc(Cl)ccc2Cl)cc1 (stereo not given)	425	
N/C(=N\CCN1CCNC(=O)C1)c1c(O)nsc1Nc1ccc(Oc2cc(Cl)ccc2Cl)cc1	87	
NC(=NCCO)c1c(Nc2ccc(Oc3cc(Cl)ccc3Cl)cc2)s[nH]c1=O	14600	
CC(CO)N=C(N)c1c(Nc2ccc(S(=O)(=O)c3ccccc3)cc2)s[nH]c1=O (stereo not given)	4250	AUC [2]: 8540 ng·h/mL
CC(CO)/N=C(\N)c1c(O)nsc1Nc1ccc(C(=O)c2ccccc2)cc1 (stereo not given)	60	AUC [2]: 2900 ng·h/mL
CC(CO)/N=C(\N)c1c(O)nsc1Nc1ccc(Cc2ccccc2)cc1 (stereo not given)	220	AUC [2]: 7250 ng·h/mL
CC(CO)N=C(N)c1c(Nc2ccc(Oc3cc(C(F)(F)F)ccc3Cl)cc2)s[nH]c1=O (stereo not given)	21900	
CC(CO)N=C(N)c1c(Nc2ccc(Oc3cccc(C(F)(F)F)c3Cl)c(F)c2)s[nH]c1=O (stereo not given)	4500	
CC(CO)N=C(N)c1c(Nc2ccc(Oc3cc(C(F)(F)F)ccc3F)cc2)s[nH]c1=O (stereo not given)	31300	
CC(CO)N=C(N)c1c(Nc2ccc(Oc3cccc(C(F)(F)F)c3F)cc2)s[nH]c1=O (stereo not given)	13000	
CN1CCN(N=C(N)c2c(Nc3ccc(Oc4cc(Cl)ccc4Cl)cc3)s[nH]c2=O)CC1	1980	
NC(=NCC(O)CO)c1c(Nc2ccc(Oc3cc(Cl)ccc3Cl)cc2)s[nH]c1=O (stereo not given)	12500	
CC(CO)N=C(N)c1c(Nc2ccc(Oc3ccc(F)cc3Cl)c(Cl)c2)s[nH]c1=O (stereo not given)	5690	
CCC(CO)/N=C(\N)c1c(O)nsc1Nc1ccc(Oc2cc(Cl)ccc2Cl)cc1 (stereo not given)	14600	
CC(CO)/N=C(\N)c1c(O)nsc1Nc1ccc(Oc2cc(Cl)ccc2Cl)c(F)c1 (stereo not given)	22200	
CC(CO)/N=C(\N)c1c(O)nsc1Nc1ccc(C(C)(C)c2ccccc2)cc1 (stereo not given)	2350	AUC [2]: 9250 ng·h/mL
CC(O)C/N=C(\N)c1c(O)nsc1Nc1ccc(Oc2cc(Cl)ccc2Cl)cc1 (stereo not given)	23900	
CC(CO)N=C(N)c1c(Nc2ccc(Sc3ccccc3)cc2)s[nH]c1=O (stereo not given)	265	AUC [2]: 6900 ng·h/mL
CN1CCN(CCC/N=C(\N)c2c(O)nsc2Nc2ccc(Oc3cc(Cl)ccc3Cl)cc2)CC1	2420	
CC(CO)/N=C(\N)c1c(O)nsc1Nc1ccc(Oc2cc(F)cc(F)c2Cl)c(F)c1 (stereo not given)	14900	
CC(CO)N=C(N)c1c(Nc2ccc(Oc3cccc(N(C)C)c3)cc2)s[nH]c1=O (stereo not given)	900	
Cc1cc(Oc2ccc(F)cc2Cl)ccc1Nc1snc(O)c1/C(N)=N/C(C)CO (stereo not given)	12700	
CC(CO)/N=C(\N)c1c(O)nsc1Nc1ccc(Oc2ccccc2)cc1 (stereo not given)	1140	AUC [2]: 8320 ng·h/mL; IC50 [3]: 142 nM; IC50 [4]: 455 nM; IC50 [5]: 33 nM; IC50 [6]: 26 nM; IC50 [7]: 260 nM; IC50 [8]: 795 nM; IC50 [9]: 2620 nM; EC50 [10]: 42 nM

More lines, main results first:

AUC [1] [ng·h/mL]	Compound	other results
5260	CC(CO)/N=C(\N)c1c(O)nsc1Nc1ccc(Oc2cccc(Cl)c2Cl)cc1 (stereo not given)	
900	CC(CO)NC(=N)c1c(O)nsc1Nc1ccc(Oc2cc(F)ccc2Cl)cc1 (stereo not given)	
9430	CC(CO)NC(=N)c1c(O)nsc1Nc1ccc(Oc2cccc(F)c2F)cc1 (stereo not given)	
4280	CC(CO)NC(=N)c1c(O)nsc1Nc1ccc(Oc2cccc(Cl)c2Cl)c(Cl)c1 (stereo not given)	
11700	CC(CO)NC(=N)c1c(O)nsc1Nc1ccc(Oc2cc(Cl)cc(Cl)c2)cc1 (stereo not given)	
16500	CC(CO)/N=C(\N)c1c(O)nsc1Nc1ccc(Oc2ccc(F)cc2F)cc1 (stereo not given)	
26200	CC(CO)NC(=N)c1c(O)nsc1Nc1ccc(Oc2ccc(Cl)cc2Cl)cc1 (stereo not given)	
5140	CC(CO)/N=C(\N)c1c(O)nsc1Nc1ccc(Oc2cc(F)cc(F)c2)cc1 (stereo not given)	
6260	CC(CO)/N=C(\N)c1c(O)nsc1Nc1ccc(Oc2ccc(F)cc2Cl)cc1 (stereo not given)	
20300	CC(CO)/N=C(\N)c1c(O)nsc1Nc1ccc(Oc2cc(F)cc(F)c2Cl)cc1 (stereo not given)	
5710	CC(CO)NC(=N)c1c(O)nsc1Nc1ccc(Oc2cccc(C(F)(F)F)c2Cl)c(Cl)c1 (stereo not given)	
20400	CC(CO)NC(=N)c1c(O)nsc1Nc1ccc(Oc2cccc(C(F)(F)F)c2Cl)cc1 (stereo not given)	
1240	CC(CO)NC(=N)c1c(O)nsc1Nc1ccc(Nc2ccccc2)cc1 (stereo not given)	AUC [2]: 859 ng·h/mL; IC50 [3]: 13 nM; IC50 [4]: 389 nM; IC50 [5]: 240 nM; IC50 [6]: 266 nM; IC50 [7]: 265 nM; IC50 [8]: 448 nM; IC50 [9]: 1000 nM; EC50 [10]: 45 nM
2020	N=C(NCCC(O)CO)c1c(O)nsc1Nc1ccc(Oc2cc(Cl)ccc2Cl)cc1 (stereo not given)	
28700	CC(CO)NC(=N)c1c(O)nsc1Nc1ccc(Oc2cccc(C(F)(F)F)c2)cc1 (stereo not given)	
12600	CC(CO)/N=C(\N)c1c(O)nsc1Nc1ccc(Oc2cccc(Cl)c2F)cc1 (stereo not given)	
15400	CC(CO)NC(=N)c1c(O)nsc1Nc1ccc(Oc2cc(F)cc(C(F)(F)F)c2)cc1 (stereo not given)	
